How the values were obtained:
Cbl-b = biological target: T1, Cbl-b (Homo sapiens, UniProt Q13191); assay: Cbl-b probe displacement HTRF binding assay; conditions: 0.4 nM biotinylated Cbl-b, 150 nM BODIPY probe
T1 construct: biotin (biotinylated)
Method: The affinity with which compounds of the present disclosure bind to Cbl-b was assessed using probe displacement homologous time resolved fluorescence (HTRF) assays. The assays used a BODIPY™ conjugated probe (Example 54 from WO 2020264398) and biotinylated Cbl-b. The assays were performed in assay buffer consisting of 20 mM Hepes, 150 mM NaCl, 0.01% Triton X-100, 0.5 mM TCEP, 0.01% BSA. On the day of the assay, a 20 point, 1:2 master serial dilution of each compound was prepared in DMSO to span a final concentration range of 10 μM to 0 nM. Two hundred nanoliters of diluted compound was added to each well of a 384-well plate. Fifteen microliters of biotinylated—Cbl-b resuspended in assay buffer were added to each well and the plate incubated for 60 minutes at room temperature prior to addition of 5 μL of BODIPY™ probe in assay buffer. Final assay conditions included 0.4 nM of Cbl-b and 150 nM of BODIPY™ probe. After a further 15 minutes of incubation at room temperature, 5 μl of Streptavidin-Terbium cryptate reagent at 5-fold final concentration was added to each well of the 384-well plate. Binding of a probe to Cbl-b results in an increase of HTRF signal. HTRF signal was measured by Envision plate reader, while competition of a compound of the present disclosure with probe results in a decrease of signal. Percentage maximum activity in each test well was calculated based on DMSO (maximum activity, 0% displacement) and no protein control wells (baseline activity, 100% displacement). Binding affinity was determined from a dose response curve fitted using a standard four parameter fit equation. See Table 3 for data for compounds (Cbl-b Binding (IC50)).

Jurkat cells = assay: IL-2 secretion assay in CD3/CD28-activated Jurkat cells (AlphaLISA); type: cell-based, human; conditions: Homo sapiens, CD3/CD28 T Cell Activator, 24 h, IL-2 AlphaLISA
Method: Certain compounds were also evaluated in an IL-2 secretion assay. On the day of the assay, a 16 point, 1:2 master serial dilution of each compound was prepared in Opti-MEM to span a final concentration range of 10 μM to 300 pM. Assays were setup in CORNING® tissue culture-treated 384-well microplates containing 60 nL of each dilution. Jurkat cells grown in RPMI-1640 supplemented with 10% FBS, 1% Glutamax, and 1% Pen/Strep were collected, resuspended in Opti-MEM. 50,000 cells/well and added to the compound plates. After a short spin (1200 rpm for 1 min), the plates were incubated at 37° C. for 1 hour. The cells were activated by adding 15 μL of IMUNOCULT™ Human CD3/CD28 T Cell Activator (STEMCELL Technologies) diluted in Opti-MEM. After 24 h of incubation at 37° C., aliquots of culture supernatants were transferred to OptiPlate-384 (PerkinElmer) microplates. The level of IL-2 secretion in the supernatants was then determined using the IL-2 (human) AlphaLISA Detection Kit (PerkinElmer) according to the manufacturer's recommendations. The AlphaLISA signal was measured using an EnVision plate reader (PerkinElmer). EC50 values were determined by fitting the data to a standard 4-parameter logistic equation. See Table 3 for data for select compounds (IL-2 Secretion (EC50)).

T1 sequence (Q13191 whole entry, species assumed): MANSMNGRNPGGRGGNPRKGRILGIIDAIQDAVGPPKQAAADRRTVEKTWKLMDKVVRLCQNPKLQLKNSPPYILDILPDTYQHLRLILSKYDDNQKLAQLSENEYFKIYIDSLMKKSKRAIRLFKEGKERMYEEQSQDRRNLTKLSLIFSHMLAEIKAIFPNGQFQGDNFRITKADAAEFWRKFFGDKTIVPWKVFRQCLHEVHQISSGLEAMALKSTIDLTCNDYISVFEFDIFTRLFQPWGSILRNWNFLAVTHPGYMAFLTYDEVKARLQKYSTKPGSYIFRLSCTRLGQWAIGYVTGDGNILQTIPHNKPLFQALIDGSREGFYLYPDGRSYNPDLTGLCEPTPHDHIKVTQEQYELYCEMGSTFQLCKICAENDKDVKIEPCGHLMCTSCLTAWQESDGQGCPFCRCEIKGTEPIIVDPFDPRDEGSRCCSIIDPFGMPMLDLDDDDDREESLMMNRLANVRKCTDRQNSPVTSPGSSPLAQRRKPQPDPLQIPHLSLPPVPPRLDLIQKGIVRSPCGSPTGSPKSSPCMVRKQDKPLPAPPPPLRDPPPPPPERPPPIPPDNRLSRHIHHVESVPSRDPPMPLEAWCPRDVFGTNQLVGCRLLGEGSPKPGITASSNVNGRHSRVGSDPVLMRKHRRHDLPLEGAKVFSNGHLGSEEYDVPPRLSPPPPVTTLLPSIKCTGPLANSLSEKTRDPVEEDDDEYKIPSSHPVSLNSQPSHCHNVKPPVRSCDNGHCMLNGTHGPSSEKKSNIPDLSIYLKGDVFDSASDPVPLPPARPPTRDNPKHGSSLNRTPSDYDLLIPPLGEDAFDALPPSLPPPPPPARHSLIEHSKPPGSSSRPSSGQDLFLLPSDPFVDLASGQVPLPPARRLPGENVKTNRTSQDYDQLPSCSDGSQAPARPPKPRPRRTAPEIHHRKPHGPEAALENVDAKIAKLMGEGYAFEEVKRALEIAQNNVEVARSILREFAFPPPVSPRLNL

Row | Compound | IC50 (Cbl-b) [nM] | EC50 (Jurkat cells) [nM]
1 | C[C@H]1CCCN(Cc2cc3c(C4CC4)cn(-c4cc(-c5ccc(F)cc5-c5cncn5C)cc(C5CC5)n4)c(=O)c3[nH]2)C1 [Example 24, 2-{[(S)-3-Methyl-1-piperidyl]methyl}-4-cyclopropyl-6-{6-cyclopropyl-4-[4-fluoro-2-(1-methyl-5-imidazolyl)phenyl]-2-pyridyl}-1,6-dihydro-1,6-diaza-7-indenone] | 100 to 1000 | 1000 to 5000
2 | Cn1cnnc1-c1cc(C#N)ccc1-c1cc(C2CC2)nc(-n2cc(C3CC3)c3cc[nH]c3c2=O)c1 [Example 4] | 1000 to 5000 | > 5000
3 | O=c1c2[nH]c(CN[C@H]3CCC[C@H]3O)cc2c(C2CC2)cn1-c1cc(F)cc(-c2ccc(F)cc2-c2nncn2C(F)F)c1 [Example 70, 2-{[(1S,2R)-2-hydroxycyclopentylamino]methyl}-4-cyclopropyl-6-{2′-[4-(difluoromethyl)-4H-1,2,4-triazol-3-yl]-4′,5-difluoro-3-biphenylyl}-1,6-dihydro-1,6-diaza-7-indenone] | < 100 | < 100
4 | Cc1c[nH]nc1-c1cc(C#N)ccc1-c1cc(C2CC2)nc(-n2cnc3cc(CN4CCC[C@H](C)C4)[nH]c3c2=O)c1 [Example 22, 4-[2-cyclopropyl-6-[6-[[(3S)-3-methylpiperidin-1-yl]methyl]-4-oxo-5H-pyrrolo[3,2-d]pyrimidin-3-yl]pyridin-4-yl]-3-(4-methyl-1H-pyrazol-3-yl)benzonitrile] | < 100 | < 100
5 | Cn1cnnc1-c1cc(F)ccc1-c1cc(C2CC2)nc(-n2cc(C(F)(F)F)c3c(C#N)n[nH]c3c2=O)c1 [Example 26, 6-{6-cyclopropyl-4-[4-fluoro-2-(4-methyl-4H-1,2,4-triazol-3-yl)phenyl]-2-pyridyl}-7-oxo-4-(trifluoromethyl)-1,6-dihydro-1,2,6-triaza-3-indenecarbonitrile] | < 100 | 1000 to 5000
6 | COC1CN(Cc2cc3ncn(-c4cc(-c5ccc(F)cc5-c5nncn5C)cc(C5CC5)n4)c(=O)c3[nH]2)C1 [Example 32, 6-{6-cyclopropyl-4-[4-fluoro-2-(4-methyl-4H-1,2,4-triazol-3-yl)phenyl]-2-pyridyl}-2-[(3-methoxy-1-azetidinyl)methyl]-1,6-dihydro-1,4,6-triaza-7-indenone] | < 100 | 100 to 1000
7 | C[C@H]1CCCCN1Cc1cc2c(C#N)cn(-c3cc(-c4c(F)cc(F)cc4-c4nccn4C)cc(C4CC4)n3)c(=O)c2[nH]1 [Example 89, 2-{[(S)-2-methyl-1-piperidyl]methyl}-6-{6-cyclopropyl-4-[4,6-difluoro-2-(1-methyl-2-imidazolyl)phenyl]-2-pyridyl}-7-oxo-1,6-dihydro-1,6-diaza-4-indenecarbonitrile] | < 100 | < 100
8 | Cc1c[nH]nc1-c1cc(C#N)ccc1-c1cc(C2CC2)nc(-n2cc(C3CC3)c3cc(CN4CCC[C@H](C)C4)[nH]c3c2=O)c1 [Example 19, 4-[2-cyclopropyl-6-[4-cyclopropyl-2-[[(3S)-3-methylpiperidin-1-yl]methyl]-7-oxo-1H-pyrrolo[2,3-c]pyridin-6-yl]pyridin-4-yl]-3-(4-methyl-1H-pyrazol-3-yl)benzonitrile] | < 100 | < 100
9 | Cc1cc(-c2ccc(C#N)cc2-c2nccn2C)cc(-n2cc(C3CC3)c3cc(CN4CCC[C@H](C)C4)[nH]c3c2=O)n1 [Example 81, 4-[2-(2-{[(S)-3-methyl-1-piperidyl]methyl}-4-cyclopropyl-7-oxo-1,6-dihydro-1,6-diaza-6-indenyl)-6-methyl-4-pyridyl]-3-(1-methyl-2-imidazolyl)benzonitrile] | < 100 | < 100
10 | Cn1cc(C(F)(F)F)nc1-c1cc(C#N)ccc1-c1cc(C2CC2)nc(-n2cc(C3CC3)c3cc(CNC4(C)CCC4)[nH]c3c2=O)c1 [Example 67, 4-(6-cyclopropyl-2-{4-cyclopropyl-2-[(1-methylcyclobutylamino)methyl]-7-oxo-1,6-dihydro-1,6-diaza-6-indenyl}-4-pyridyl)-3-[1-methyl-4-(trifluoromethyl)-2-imidazolyl]benzonitrile] | < 100 | 100 to 1000
11 | Cn1ccnc1-c1cc(F)ccc1-c1cc(C2CC2)nc(-n2cc(C3CC3)c3cc(CNC4(CO)CCC4)[nH]c3c2=O)c1 [Example 53, 4-cyclopropyl-6-{6-cyclopropyl-4-[4-fluoro-2-(1-methyl-2-imidazolyl)phenyl]-2-pyridyl}-2-{[1-(hydroxymethyl)cyclobutylamino]methyl}-1,6-dihydro-1,6-diaza-7-indenone] | < 100 | < 100
12 | CO[C@@H](C)CN(C)Cc1cc2ncn(-c3cc(-c4ccc(F)cc4-c4nc(C#N)cn4C)cc(C4CC4)n3)c(=O)c2[nH]1 [Example 113, 2-[2-[2-cyclopropyl-6-[6-[[[(2S)-2-methoxypropyl]-methylamino]methyl]-4-oxo-5H-pyrrolo[3,2-d]pyrimidin-3-yl]pyridin-4-yl]-5-fluorophenyl]-1-methyl-imidazole-4-carbonitrile] | < 100 | –
13 | C[C@H]1CCCN(Cc2cc3c(C4CC4)cn(-c4cc(-c5ccc(F)cc5-c5nncn5C)cc(C5CC5)n4)c(=O)c3[nH]2)C1 [Example 10, 2-{[(S)-3-Methyl-1-piperidyl]methyl}-4-cyclopropyl-6-{6-cyclopropyl-4-[4-fluoro-2-(4-methyl-4H-1,2,4-triazol-3-yl)phenyl]-2-pyridyl}-1,6-dihydro-1,6-diaza-7-indenone] | < 100 | –
14 | COCCNCc1cc2ncn(-c3cc(-c4ccc(F)cc4-c4ncoc4C)cc(C4CC4)n3)c(=O)c2[nH]1 [Example 78, 6-{6-cyclopropyl-4-[4-fluoro-2-(5-methyl-1,3-oxazol-4-yl)phenyl]-2-pyridyl}-2-[(2-methoxyethylamino)methyl]-1,6-dihydro-1,4,6-triaza-7-indenone] | < 100 | –
15 | COC[C@H](C)NCc1cc2ncn(-c3cc(-c4ccc(F)cc4-c4ncoc4C)cc(C4CC4)n3)c(=O)c2[nH]1 [Example 79, 2-{[(S)-2-methoxy-1-methylethylamino]methyl}-6-{6-cyclopropyl-4-[4-fluoro-2-(5-methyl-1,3-oxazol-4-yl)phenyl]-2-pyridyl}-1,6-dihydro-1,4,6-triaza-7-indenone] | < 100 | –
16 | CO[C@@H](C)CNCc1nc2c(C(F)(F)F)cn(-c3cc(-c4ccc(F)cc4-c4ncoc4C)cc(C4CC4)n3)c(=O)c2[nH]1 [Example 49, 2-{[(S)-2-methoxypropylamino]methyl}-5-{6-cyclopropyl-4-[4-fluoro-2-(5-methyl-1,3-oxazol-4-yl)phenyl]-2-pyridyl}-7-(trifluoromethyl)-3,5-dihydro-1,3,5-triaza-4-indenone] | < 100 | –
17 | COCCNCc1cc2ncn(-c3cc(-c4ccc(C#N)cc4-c4ncoc4C)cc(C4CC4)n3)c(=O)c2[nH]1 [Example 72, 4-(6-cyclopropyl-2-{2-[(2-methoxyethylamino)methyl]-7-oxo-1,6-dihydro-1,4,6-triaza-6-indenyl}-4-pyridyl)-3-(5-methyl-1,3-oxazol-4-yl)benzonitrile] | < 100 | –
18 | C[C@H]1CCCN(Cc2cc3c(C4CC4)cn(-c4cc(-c5ccc(C#N)cc5-c5nccn5C)cc(C5CC5)n4)c(=O)c3[nH]2)C1 [Example 13, 4-[2-(2-{[(S)-3-methyl-1-piperidyl]methyl}-4-cyclopropyl-7-oxo-1,6-dihydro-1,6-diaza-6-indenyl)-6-cyclopropyl-4-pyridyl]-3-(1-methyl-2-imidazolyl)benzonitrile] | < 100 | –
19 | CCOCCNCc1cc2ncn(-c3cc(-c4ccc(F)cc4-c4ncoc4C)cc(C4CC4)n3)c(=O)c2[nH]1 [Example 80, 6-{6-cyclopropyl-4-[4-fluoro-2-(5-methyl-1,3-oxazol-4-yl)phenyl]-2-pyridyl}-2-[(2-ethoxyethylamino)methyl]-1,6-dihydro-1,4,6-triaza-7-indenone] | < 100 | –

From patent publication US20250011318A1 (ARCUS BIOSCIENCES, INC., priority 2023, published 2025)
